Data taken from patent publication US20230009323A1, “COMPOUNDS AND METHODS FOR THE TREATMENT OF CRYPTOSPORIDIOSIS” (The Broad Institute, Inc., priority 2019, published 2023).
Like-named read-outs stand apart in the source and are kept apart here.

Experiments:
[1] = system: C. parvum Iowa isolate (Bunch Grass Farm); assay: C. parvum Iowa isolate (Bunch Grass Farm) growth in HCT-8 cells, high-content microscopy; assay type: cell-based; conditions: Cryptosporidium parvum
Protocol: A high-content microscopy assay was used to measure activity of compounds against C. parvum grown in the human adenocarcinoma cell line HCT-8 (ATCC) as disclosed in Bessoff, K., et al., Antimicrobial agents and chemotherapy 57, 1804-1814, doi:10.1128/AAC.02460-12 (2013), hereby incorporated by reference in its entirety. HCT-8 cells were cultured in 384-well clear-bottomed plates in 50 μL per well of RPMI 1640 medium ([…]), 120 U·mL^−1 penicillin, and 120 μg·mL^−1 streptomycin (ATCC) at 37° C. under 5% CO2. For compound screening and follow-up SAR studies, confluent cell monolayers were infected with C. parvum Iowa isolate oocysts [Bunch Grass Farm (Deary, Id.); ˜5,500 oocysts per well] after inducing excystation by treatment for 10 min at 37° C. with 10 mM HCl and then 10 min at 16° C. in 2 mM sodium taurocholate. Compounds were added at the indicated concentrations 3 h after monolayer infection. After incubation (37° C., 5% CO2) for 48 h, the cells were washed three times with PBS containing 111 mM D-Galactose and fixed by adding an equal volume of 8% formaldehyde in PBS. Cell monolayers were then prepared for microscopy by permeabilizing with 0.1% Triton X-100, washing three times with PBS with 0.1% Tween 20, blocking with 4% bovine serum albumin (BSA) in PBS for 2 h at 37° C. or 4° C. overnight, and staining parasitophorous vacuoles with 1.33 μg·mL^−1 of fluorescein-labeled Vicia villosa lectin (Vector Laboratories) diluted in 1% BSA in PBS with 0.1% Tween 20 for 1 h at 37° C. DNA was then stained by adding Hoechst 33258 (AnaSpec) at a final concentration of 0.09 mM diluted in water, followed by washing five times with PBS containing 0.1% Tween 20. Images were acquired using a Nikon Eclipse TE2000 epifluorescence microscope with an automated stage that was programmed using NIS-Elements Advanced Research software (Nikon) to focus on the center of each well and take a 3×3 composite image using an EXi Blue fluorescence microscopy camera (QImaging) with a 20× objective (numerical aperture 0.45). Nucleus and parasite images were exported separately as tif files and analyzed using NIH ImageJ and previously reported macros, and data analysis and graphing were done using GraphPad Prism software, version 6.01. […]

[2] = system: C. parvum (Field Isolate) WSU; assay: C. parvum field isolate (WSU) growth in HCT-8 cells; assay type: cell-based; conditions: Cryptosporidium parvum
Protocol: Studies using farm C. parvum isolates and the C. hominis TU502 isolate were performed by Calibr at Scripps Research (La Jolla, Calif.) in 1,536-well plates using a slightly modified immunofluorescence assay as described in Love, M. S. et al. PLoS neglected tropical diseases 11, e0005373, doi:10.1371/journal.pntd.0005373 (2017), hereby incorporated by reference in its entirety. HCT-8 cell culture medium was replaced with RPMI 1640 medium supplemented with 2% heat-inactivated horse serum, 100 U·mL^−1 penicillin, and […] 24 h prior to infection with the indicated isolate. The C. parvum Iowa isolate was included as a reference in all experiments. Imaging was performed using a Cellnsight CX5 High Content screening platform (Thermo Scientific) with a 10× objective and acquisition of one microscopic field per well. Images were processed using HCS Studio Scan software, and the selected-object count (HCT-8 cells) and spot count (parasitophorous vacuoles) were analyzed in Genedata Screener (version 13.0; Standard). Dose-response curves and EC50 values were calculated using the Smart Fit function of Genedata Analyzer.

C. parvum = assay: Host cell invasion assay; assay type: cell-based, Cryptosporidium parvum
[3] = system: C. parvum Iowa isolate (Bunch Grass Farms); assay: C. parvum time-kill curve assay in HCT-8 cells; assay type: cell-based, Cryptosporidium parvum
Protocol: Time-kill curve assays were performed in 384-well plates using C. parvum Iowa isolate oocysts (Bunch Grass Farms, Deary, Id.) following infection of HCT-8 cell monolayers as described in Jumani, R. S. et al. Antimicrobial agents and chemotherapy 62, e01505-01517 (2018), hereby incorporated by reference in its entirety. […] Single-phase exponential decay curves were fit using GraphPad Prism software version 6.01 after normalizing the percentage of host cells infected to the vehicle control value at each time point, which isolates the effect of compound treatment from the spontaneous reduction in parasite numbers that occurs in this culture system.

What does the source list for `COc1ccc(NC(=O)N2CCCCN3[C@H](CN(C)C)[C@H](c4ccc(C#Cc5ccccc5)cc4)[C@@H]3C2)cc1` [Compound 11, (8R,9S,10S)-10-((dimethylamino)methyl)-N-(4-methoxyphenyl)-9-(4-(phenylethynyl)phenyl)-1,6-diazabicyclo[6.2.0]decane-6-carboxamide]?
EC50 ([1]; read-out: C. parvum (Iowa) (1% FBS) BGF EC50): 9 nM; EC50 ([1]; read-out: C. parvum (Iowa) (10% FBS) BGF EC50): 73 nM; EC50 ([1]; serum not given, read-out: C. parvum EC50): < 73 nM; EC50 [2]: 23 nM; effect on host cell invasion (C. parvum): No effect; parasites per nucleus at 80 h ([3]; compound at EC50): ~60%; parasites per nucleus at 80 h ([3]; compound at EC90): ~30%; time required to eliminate 99.9% of parasites ([3]; normalized to vehicle control): ~95 h
